Assay results published in patent US8461160B2, “Dihydropyrimidinones” (Hoffmann-La Roche, Inc., priority 2009, dated 2013).

Target: T1, BACE2 (Homo sapiens, UniProt Q9Y5Z0)
T1 construct: BACE2 enzyme ectodomain (derived from plasmid “pET17b-T7-hu proBACE2”) was prepared as described in Ostermann et al; T7 tag (N); made in house
T1 sequence (Q9Y5Z0 21-473 limits assumed): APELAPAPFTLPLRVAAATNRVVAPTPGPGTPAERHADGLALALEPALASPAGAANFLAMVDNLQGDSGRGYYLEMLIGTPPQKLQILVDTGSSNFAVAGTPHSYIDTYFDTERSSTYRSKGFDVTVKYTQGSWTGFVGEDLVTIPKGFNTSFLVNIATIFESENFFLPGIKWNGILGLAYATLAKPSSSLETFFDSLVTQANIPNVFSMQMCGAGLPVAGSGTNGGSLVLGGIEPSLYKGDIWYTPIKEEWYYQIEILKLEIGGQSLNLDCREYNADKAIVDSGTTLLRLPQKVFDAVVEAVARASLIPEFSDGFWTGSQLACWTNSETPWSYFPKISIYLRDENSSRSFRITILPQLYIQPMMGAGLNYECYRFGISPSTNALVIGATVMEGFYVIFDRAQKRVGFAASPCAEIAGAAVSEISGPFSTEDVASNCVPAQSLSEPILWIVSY
Test: Fluorescent-peptide cleavage assay for BACE2 inhibition
Format: biochemical
Settings: BACE2 enzyme ectodomain, fluorescent peptide WS EVNLD AEFRC-MR121, assay buffer pH 4.5, room temperature
Summary of the method: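 Pro-enzyme BACE2 was activated at 80 nM for 1 h at room temperature in 100 mM Na-acetate, 20 mM EDTA, 0.05% BSA, pH 4.5, then preincubated 10 min with compound. IC50 from sigmoidal dose-response fit.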

| IC50 [nM] | SMILES |
| --- | --- |
| 170 | CCC[C@@]1(c2cccc(NC(=O)c3ccc(Cl)cn3)c2)CC(=O)N(C)C(N)=N1 [Example 87, 5-Chloro-pyridine-2-carboxylic acid [3-((S)-2-amino-1-methyl-6-oxo-4-propyl-1,4,5,6-tetrahydro-pyrimidin-4-yl)-phenyl]-amide] |
| 250 | CC[C@@]1(c2cccc(NC(=O)c3ccc(C(F)(F)F)cn3)c2)CC(=O)N(C)C(N)=N1 [Example 86, 5-Trifluoromethyl-pyridine-2-carboxylic acid [3-((S)-2-amino-4-ethyl-1-methyl-6-oxo-1,4,5,6-tetrahydro-pyrimidin-4-yl)-phenyl]amide] |
| 349 | CCCOc1cccnc1C(=O)Nc1cccc([C@]2(C)CC(=O)N(C)C(N)=N2)c1 [Example 55, 3-Propoxy-pyridine-2-carboxylic acid [3-((S)-2-amino-1,4-dimethyl-6-oxo-1,4,5,6-tetrahydro-pyrimidin-4-yl)-phenyl]-amide] |
| 1010 | Cc1cc(C(=O)Nc2cccc([C@]3(C)CC(=O)N(C)C(N)=N3)c2)nn1C [Example 7, 1,5-Dimethyl-1H-pyrazole-3-carboxylic acid [3-((S)-2-amino-1,4-dimethyl-6-oxo-1,4,5,6-tetrahydro-pyrimidin-4-yl)-phenyl]amide] |
| 35 | CN1C(=O)C(C)(C)[C@@](C)(c2cc(NC(=O)c3ccn(C)n3)ccc2F)N=C1N [Example 98, 1-Methyl-1H-pyrazole-3-carboxylic acid [3-((S)-2-amino-1,4,5,5-tetramethyl-6-oxo-1,4,5,6-tetrahydro-pyrimidin-4-yl)-4-fluoro-phenyl]amide] |
| 43 | CN1C(=O)C(C)(C)[C@@](C)(c2cc(NC(=O)c3ccccn3)ccc2F)N=C1N [Example 100, Pyridine-2-carboxylic acid [3-((S)-2-amino-1,4,5,5-tetramethyl-6-oxo-1,4,5,6-tetrahydro-pyrimidin-4-yl)-4-fluoro-phenyl]amide] |
| 14 | CN1C(=O)C[C@@](C)(c2cc(NC(=O)c3ncc(Cl)cn3)ccc2F)N=C1N [Example 46, 5-Chloro-pyrimidine-2-carboxylic acid [3-((S)-2-amino-1,4-dimethyl-6-oxo-1,4,5,6-tetrahydro-pyrimidin-4-yl)-4-fluoro-phenyl]amide] |
| 123 | Cc1cnc(C(=O)Nc2cccc([C@]3(C)CC(=O)N(C)C(N)=N3)c2)cn1 [Example 22, 5-Methyl-pyrazine-2-carboxylic acid [3-((S)-2-amino-1,4-dimethyl-6-oxo-1,4,5,6-tetrahydro-pyrimidin-4-yl)-phenyl]amide] |
| 300 | CC[C@@]1(c2cccc(NC(=O)c3ccc(F)cn3)c2)CC(=O)N(C)C(N)=N1 [Example 85, 5-Fluoro-pyridine-2-carboxylic acid [3-((S)-2-amino-4-ethyl-1-methyl-6-oxo-1,4,5,6-tetrahydro-pyrimidin-4-yl)-phenyl]-amide] |
| 28 | CN1C(=O)C(C)(C)[C@@](C)(c2cc(NC(=O)c3ncccc3F)ccc2F)N=C1N [Example 108, 3-Fluoro-pyridine-2-carboxylic acid [3-((S)-2-amino-1,4,5,5-tetramethyl-6-oxo-1,4,5,6-tetrahydro-pyrimidin-4-yl)-4-fluoro-phenyl]amide] |
| 158 | COc1cccnc1C(=O)Nc1cccc([C@@]2(C)N=C(N)N(C)C(=O)C2(C)C)c1 [Example 93, 3-Methoxy-pyridine-2-carboxylic acid [3-((R)-2-amino-1,4,5,5-tetramethyl-6-oxo-1,4,5,6-tetrahydro-pyrimidin-4-yl)-phenyl]amide] |
| 125 | CC[C@@]1(c2cccc(NC(=O)c3cccc(Cl)n3)c2)CC(=O)N(C)C(N)=N1 [Example 42, 6-Chloro-pyridine-2-carboxylic acid [3-((S)-2-amino-4-ethyl-1-methyl-6-oxo-1,4,5,6-tetrahydro-pyrimidin-4-yl)-phenyl]-amide] |
| 220 | CN1C(=O)C[C@]2(CCc3ccc(NC(=O)c4ccc(OCC(F)(F)F)cn4)cc32)N=C1N [Example 129, N-[(1S)-2′-amino-1′-methyl-6′-oxo-2,3,5′,6′-tetrahydro-1′H-spiro[indene-1,4′-pyrimidin]-6-yl]-5-(2,2,2-trifluoro-ethoxy)-pyridine-2-carboxamide] |
| 150 | CN1C(=O)C[C@@](C)(c2cccc(NC(=O)c3ncccc3C(F)(F)F)c2)N=C1N [Example 62, 3-Trifluoromethyl-pyridine-2-carboxylic acid [3-((S)-2-amino-1,4-dimethyl-6-oxo-1,4,5,6-tetrahydro-pyrimidin-4-yl)-phenyl]-amide] |
| 18 | CN1C(=O)C[C@@](C)(c2cccc(NC(=O)c3ccc(F)cn3)c2)N=C1N [Example 27, 5-Fluoro-pyridine-2-carboxylic acid [3-((S)-2-amino-1,4-dimethyl-6-oxo-1,4,5,6-tetrahydro-pyrimidin-4-yl)-phenyl]amide] |
| 33 | C[C@@]1(c2cccc(NC(=O)c3ccc(Cl)cn3)c2)CC(=O)NC(N)=N1 [Example 51, 5-Chloro-pyridine-2-carboxylic acid [3-((S)-2-amino-4-methyl-6-oxo-1,4,5,6-tetrahydro-pyrimidin-4-yl)-phenyl]amide] |
| 190 | CN1C(=O)C(C)(C)[C@@](C)(c2cc(NC(=O)c3nccn3C)ccc2F)N=C1N [Example 111, 1-Methyl-1H-imidazole-2-carboxylic acid [3-((S)-2-amino-1,4,5,5-tetramethyl-6-oxo-1,4,5,6-tetrahydro-pyrimidin-4-yl)-4-fluoro-phenyl]amide] |
| 10 | CN1C(=O)C[C@@](C)(c2cccc(NC(=O)c3ccc(C#N)cn3)c2)N=C1N [Example 15, 5-Cyano-pyridine-2-carboxylic acid [3-((S)-2-amino-1,4-dimethyl-6-oxo-1,4,5,6-tetrahydro-pyrimidin-4-yl)-phenyl]amide] |
| 590 | Cc1cc(C(=O)Nc2cccc([C@]3(C)CC(=O)N(C)C(N)=N3)c2)no1 [Example 82, 5-Methyl-isoxazole-3-carboxylic acid [3-((S)-2-amino-1,4-dimethyl-6-oxo-1,4,5,6-tetrahydro-pyrimidin-4-yl)-phenyl]-amide] |
| 13 | Cc1ccc(C(=O)Nc2cccc([C@]3(C)CC(=O)N(C)C(N)=N3)c2)s1 [Example 1, 5-Methyl-thiophene-2-carboxylic acid [3-((S)-2-amino-1,4-dimethyl-6-oxo-1,4,5,6-tetrahydro-pyrimidin-4-yl)-phenyl]-amide] |
| 60 | CN1C(=O)C[C@@](C)(c2cccc(NC(=O)c3ccc(OCC(F)(F)F)cn3)c2)N=C1N [Example 63, 5-(2,2,2-Trifluoro-ethoxy)-pyridine-2-carboxylic acid [3-((S)-2-amino-1,4-dimethyl-6-oxo-1,4,5,6-tetrahydro-pyrimidin-4-yl)-phenyl]-amide] |
| 25 | CN1C(=O)C(C)(C)[C@@](C)(c2cc(NC(=O)c3ccc(OC(F)F)cn3)ccc2F)N=C1N [Example 103, 5-Difluoromethoxy-pyridine-2-carboxylic acid [3-((S)-2-amino-1,4,5,5-tetramethyl-6-oxo-1,4,5,6-tetrahydro-pyrimidin-4-yl)-4-fluoro-phenyl]amide] |
| 58 | CN1C(=O)C[C@@](C)(c2cccc(NC(=O)c3ccc(=O)[nH]n3)c2)N=C1N [Example 23, 6-Oxo-1,6-dihydro-pyridazine-3-carboxylic acid [3-((S)-2-amino-1,4-dimethyl-6-oxo-1,4,5,6-tetrahydro-pyrimidin-4-yl)-phenyl]amide] |
| 2980 | CN1C(=O)C[C@@](C)(c2cccc(NC(=O)c3nccc4ccccc34)c2)N=C1N [Example 56, Isoquinoline-1-carboxylic acid [3-((S)-2-amino-1,4-dimethyl-6-oxo-1,4,5,6-tetrahydro-pyrimidin-4-yl)-phenyl]-amide] |
| 120 | Cc1ccc(C(=O)Nc2cccc([C@]3(C)CC(=O)N(C)C(N)=N3)c2)cc1 [Example 17, N-[3-((S)-2-Amino-1,4-dimethyl-6-oxo-1,4,5,6-tetrahydro-pyrimidin-4-yl)-phenyl]-4-methyl-benzamide] |
| 43 | CN1C(=O)C(C)(C)[C@@](C)(c2cc(NC(=O)c3cn4cc(Cl)ccc4n3)ccc2F)N=C1N [Example 120, 6-Chloro-imidazo[1,2-a]pyridine-2-carboxylic acid [3-((S)-2-amino-1,4,5,5-tetramethyl-6-oxo-1,4,5,6-tetrahydro-pyrimidin-4-yl)-4-fluoro-phenyl]amide] |
| 16 | CN1C(=O)C[C@@](C)(c2cccc(NC(=O)c3ncc(C(F)(F)F)cc3Cl)c2)N=C1N [Example 70, 3-Chloro-5-trifluoromethyl-pyridine-2-carboxylic acid [3-((S)-2-amino-1,4-dimethyl-6-oxo-1,4,5,6-tetrahydro-pyrimidin-4-yl)-phenyl]-amide] |
| 79 | CCOc1cc(C(F)(F)F)cnc1C(=O)Nc1cccc([C@]2(C)CC(=O)N(C)C(N)=N2)c1 [Example 74, 3-Ethoxy-5-trifluoromethyl-pyridine-2-carboxylic acid [3-((S)-2-amino-1,4-dimethyl-6-oxo-1,4,5,6-tetrahydro-pyrimidin-4-yl)-phenyl]-amide] |
